Laboratory results published in PMC10208580 (Science Advances, 2023).
Like-named read-outs stand apart in the source and are kept apart here. Bridge positions count the residues as written; N and C are the ends. Square brackets hold non-standard residues; d marks the D form. Ends that are not written are not given here. Peptide text beside a SMILES is read from it. pT = C[C@@H](OP(=O)(O)O)[C@H](N)C(=O)O

Assays:
[1] = tested on: CC(C)C[C@@H]1NC(=O)[C@H](Cc2c[nH]cn2)NC(=O)[C@@H]2CCCN2C(=O)[C@H](CC(C)C)NC(=O)[C@@H](NC(=O)[C@H](CC(=O)O)NC(=O)CN)CSSC[C@@H]2NC(=O)[C@@H]3CSSC[C@@H](C(=O)N[C@@H](CCCNC(=N)N)C(=O)O)NC(=O)[C@H](CCCNC(=N)N)NC(=O)[C@H](CCCCN)NC(=O)[C@H](CCC(=O)O)NC(=O)[C@H](C)NC(=O)[C@H](CC(N)=O)NC(=O)[C@H]([C@@H](C)O)NC(=O)CNC(=O)[C@H](CCCNC(=N)N)NC(=O)[C@H](CCCNC(=N)N)NC(=O)[C@H](CCCCN)NC(=O)[C@H](CSSC[C@H](NC(=O)[C@H](CCCNC(=N)N)NC(=O)[C@H](CCCCN)NC1=O)C(=O)N[C@@H](CCCCN)C(=O)N[C@@H](C)C(=O)N[C@@H](CC(=O)O)C(=O)N[C@@H](CC(N)=O)C(=O)N[C@@H](CC(=O)O)C(=O)N3)NC(=O)[C@H](CCCCN)NC(=O)[C@H](CCCCN)NC(=O)CNC2=O; experiment: ADP-Glo kinase assay, Michaelis-Menten kinetics of peptide phosphorylation; format: biochemical, mouse; conditions: other: peptide as PKA substrate; 25 nM PKAc, 1 mM ATP, substrate 0.5-512 µM, room temperature 30-60 min, luminescence; 6 repeats; pH 7.4
Method: (§1) PKAc was concentrated to 500 μM, aliquoted, and stored in kinase buffer containing 20 mM Hepes (pH 7.4), 150 mM KCl, 4 mM TCEP, 5 mM MgCl2, and 30% glycerol and stored at −70°C in 0.5-ml tubes prior for use in kinase assays. All ADP-Glo Max reagents (Promega) were thawed and brought to room temperature before use. Each 0.5-ml PKAc tube was thawed and diluted to 0.5 μM in the kinase buffer without the glycerol. Kemptide and IpCa substrates were diluted to 1 mM in kinase buffer (without glycerol) from 10 mM stock made from lyophilized powder. Using a twofold dilution series, substrate concentrations ranged from 512 to 0.5 μM. In addition, a reaction with no substrate was added for a total of 12 reactions using a 20-μl reaction volume. One microliter of ATP (from the ADP-Glo Max kit) was used to reach a final concentration of 1 mM ATP in the reaction volume. Reaction was started by adding 1 μl of PKAc to reach 25 nM for each reaction. All reactions were carried out at room temperature for 30 to 60 min. Duplicates of each reaction tube were plated on a Corning 384-well solid white polystyrene microplates (Thermo Fisher Scientific) and used for downstream detection and luminescence readings. The average values of each duplicate reaction were used as a single replicate. Thus, for the total of six replicates, 12 reactions were used. Readings are based on relative luminescence units, which are converted into moles of ATP hydrolyzed using an adenosine diphosphate–ATP standard curve according to manufacturer’s protocol (Promega). Each standard curve was run in duplicate where the average was used to calculate moles of ATP hydrolyzed in each kinase reaction. Luminescence readings were recorded from the microplate wells using a PerkinElmer Victor X4.
(§2) A nonlinear regression Michaelis-Menten kinetics fitting function was used in GraphPad Prism 8.0 to calculate KM,Vmax, and Kcat values for the PKA-IpCa kinase assays. SEMs are reported for each data point as calculated in Prism. Figures and graphs were generated using PyMOL, ChimeraX, and Prism 8.0 unless otherwise noted. [^3H] Ryanodine binding data were fitted using nonlinear regression analysis in Origin 2018b software (Origin Lab). Hill’s equation was used to determine Bmax (maximum specific binding) and Kd ([…]). Statistical significance was determined at P < 0.05.

RyR1 [2] = target: T1, RyR1 (Oryctolagus cuniculus, UniProt P11716); experiment: [3H]ryanodine binding to skeletal muscle heavy SR vesicles; format: biochemical, rabbit; conditions: for EC50: SEM
T1 construct: from tissue; host or cells: rabbit skeletal muscle heavy SR vesicles

[3] = target: T2, mouse cAMP PKA catalytic subunit (PKAc, α isoform) (Mus musculus, UniProt P05132); experiment: ADP-Glo kinase assay, Michaelis-Menten kinetics of peptide phosphorylation; format: biochemical; conditions: peptide as PKA substrate, 25 nM PKAc, 1 mM ATP, 6 repeats
T2 construct: His tag (inferred from HisTrap purification) (cleaved yes); made in house; host or cells: E. coli Rosetta (DE3) pLysI
Method: as §1, §2

rabbit RyR1 = experiment: Cryo-EM of RyR1 incubated with calcin variant (density for peptide); format: binding; conditions: activating conditions (Ca2+, ATP, caffeine, CaM1234), incubation up to an hour
Method: For activating conditions (datasets 3 to 5), RyR1 samples were diluted to contain 30 μM buffered free Ca^2+, 80 μM CaM1234, 5 mM caffeine, and 8 mM (dataset 3) or 5 mM (datasets 4 and 5) ATP. Purified IpCa (powder) was first diluted to 1 mM in buffer S5 without EGTA or Ca^2+ and then added to the RyR1 samples to a final concentration of 30 to 80 μM. Samples were incubated in the presence of IpCa (including pT26 and T26E) up to an hour before plunging. RyR1 particles from each condition were assessed by negative-stain EM. Four microliters of purified RyR1 diluted to 0.01 to 0.05 mg/ml was applied to glow-discharged 400-mesh copper grids (Electron Microscopy Sciences) and stained with 0.7% (w/v %) uranyl formate. Negatively stained EM grids were imaged on a Tecnai G2 Spirit microscope (Thermo Fisher Scientific) operated at 120 kV or a Talos with a Ceta camera operated at 120 kV.
For cryo-EM, RyR1 samples with a final concentration of 10 to 12 mg/ml were used. The samples were applied to holey carbon R2/2 grids (Quantifoil). Grids were blotted for 3 s with −5 to −15 blot force applied and subsequently flash-frozen with liquid ethane using a Vitrobot IV (Thermo Fisher Scientific). Grids were transferred to a Titan Krios G2 electron microscope (Thermo Fisher Scientific) operating at 300 kV. […]

RyR1 [4] = conditions: cited from earlier work
Excerpt: The detailed binding interface between IpCa and RyR1 is shown in Fig. 3, and putative interacting pairs of residues are shown in table S1. IpCa enters the vestibule of the channel and binds deep at the cytosolic side, adjacent to the transmembrane region. All RyR1 residues involved in binding are located in the cytosolic extensions of the inner S6 helices (S6ext) that line the permeation pathway. Equivalent residues of all four RyR1 subunits make different interactions with IpCa. The most extensive interface includes the side of IpCa that contains the 22–30 loop. It mostly consists of various ... || The structure is also in agreement with previous mutagenesis studies of calcins. For example, Arg^23 is conserved in all calcins and forms a likely salt bridge with RyR1 residue Asp^4945. […] Another study found a general importance of multiple charged IpCa residues to form a subconductance state in RyR1, with the largest effects found for substitutions in the 22–30 loop ([20]), which forms the most extensive interactions with RyR1. Thus, the structure appears to be in general agreement with known potencies of natura ... || A third tunnel with a smaller radius (~1.8 Å) can be found at the lateral opening near Arg^24 (“exit 3,” fig. S10D). The narrower radius, along with the presence of three positively charged residues at the constriction point, likely provides a sizeable energetic barrier. Thus, on the basis of minimum radius and electrostatic surface potential, exit 1 may form the most likely exit pathway for Ca^2+ ions.

[5] = target: rabbit RyR1 (Ryanodine Receptor 1), purified from skeletal muscle (rabbit) (UniProt P11716)
Chain of rabbit RyR1 (Ryanodine Receptor 1), purified from skeletal muscle (rabbit) (P11716 whole entry): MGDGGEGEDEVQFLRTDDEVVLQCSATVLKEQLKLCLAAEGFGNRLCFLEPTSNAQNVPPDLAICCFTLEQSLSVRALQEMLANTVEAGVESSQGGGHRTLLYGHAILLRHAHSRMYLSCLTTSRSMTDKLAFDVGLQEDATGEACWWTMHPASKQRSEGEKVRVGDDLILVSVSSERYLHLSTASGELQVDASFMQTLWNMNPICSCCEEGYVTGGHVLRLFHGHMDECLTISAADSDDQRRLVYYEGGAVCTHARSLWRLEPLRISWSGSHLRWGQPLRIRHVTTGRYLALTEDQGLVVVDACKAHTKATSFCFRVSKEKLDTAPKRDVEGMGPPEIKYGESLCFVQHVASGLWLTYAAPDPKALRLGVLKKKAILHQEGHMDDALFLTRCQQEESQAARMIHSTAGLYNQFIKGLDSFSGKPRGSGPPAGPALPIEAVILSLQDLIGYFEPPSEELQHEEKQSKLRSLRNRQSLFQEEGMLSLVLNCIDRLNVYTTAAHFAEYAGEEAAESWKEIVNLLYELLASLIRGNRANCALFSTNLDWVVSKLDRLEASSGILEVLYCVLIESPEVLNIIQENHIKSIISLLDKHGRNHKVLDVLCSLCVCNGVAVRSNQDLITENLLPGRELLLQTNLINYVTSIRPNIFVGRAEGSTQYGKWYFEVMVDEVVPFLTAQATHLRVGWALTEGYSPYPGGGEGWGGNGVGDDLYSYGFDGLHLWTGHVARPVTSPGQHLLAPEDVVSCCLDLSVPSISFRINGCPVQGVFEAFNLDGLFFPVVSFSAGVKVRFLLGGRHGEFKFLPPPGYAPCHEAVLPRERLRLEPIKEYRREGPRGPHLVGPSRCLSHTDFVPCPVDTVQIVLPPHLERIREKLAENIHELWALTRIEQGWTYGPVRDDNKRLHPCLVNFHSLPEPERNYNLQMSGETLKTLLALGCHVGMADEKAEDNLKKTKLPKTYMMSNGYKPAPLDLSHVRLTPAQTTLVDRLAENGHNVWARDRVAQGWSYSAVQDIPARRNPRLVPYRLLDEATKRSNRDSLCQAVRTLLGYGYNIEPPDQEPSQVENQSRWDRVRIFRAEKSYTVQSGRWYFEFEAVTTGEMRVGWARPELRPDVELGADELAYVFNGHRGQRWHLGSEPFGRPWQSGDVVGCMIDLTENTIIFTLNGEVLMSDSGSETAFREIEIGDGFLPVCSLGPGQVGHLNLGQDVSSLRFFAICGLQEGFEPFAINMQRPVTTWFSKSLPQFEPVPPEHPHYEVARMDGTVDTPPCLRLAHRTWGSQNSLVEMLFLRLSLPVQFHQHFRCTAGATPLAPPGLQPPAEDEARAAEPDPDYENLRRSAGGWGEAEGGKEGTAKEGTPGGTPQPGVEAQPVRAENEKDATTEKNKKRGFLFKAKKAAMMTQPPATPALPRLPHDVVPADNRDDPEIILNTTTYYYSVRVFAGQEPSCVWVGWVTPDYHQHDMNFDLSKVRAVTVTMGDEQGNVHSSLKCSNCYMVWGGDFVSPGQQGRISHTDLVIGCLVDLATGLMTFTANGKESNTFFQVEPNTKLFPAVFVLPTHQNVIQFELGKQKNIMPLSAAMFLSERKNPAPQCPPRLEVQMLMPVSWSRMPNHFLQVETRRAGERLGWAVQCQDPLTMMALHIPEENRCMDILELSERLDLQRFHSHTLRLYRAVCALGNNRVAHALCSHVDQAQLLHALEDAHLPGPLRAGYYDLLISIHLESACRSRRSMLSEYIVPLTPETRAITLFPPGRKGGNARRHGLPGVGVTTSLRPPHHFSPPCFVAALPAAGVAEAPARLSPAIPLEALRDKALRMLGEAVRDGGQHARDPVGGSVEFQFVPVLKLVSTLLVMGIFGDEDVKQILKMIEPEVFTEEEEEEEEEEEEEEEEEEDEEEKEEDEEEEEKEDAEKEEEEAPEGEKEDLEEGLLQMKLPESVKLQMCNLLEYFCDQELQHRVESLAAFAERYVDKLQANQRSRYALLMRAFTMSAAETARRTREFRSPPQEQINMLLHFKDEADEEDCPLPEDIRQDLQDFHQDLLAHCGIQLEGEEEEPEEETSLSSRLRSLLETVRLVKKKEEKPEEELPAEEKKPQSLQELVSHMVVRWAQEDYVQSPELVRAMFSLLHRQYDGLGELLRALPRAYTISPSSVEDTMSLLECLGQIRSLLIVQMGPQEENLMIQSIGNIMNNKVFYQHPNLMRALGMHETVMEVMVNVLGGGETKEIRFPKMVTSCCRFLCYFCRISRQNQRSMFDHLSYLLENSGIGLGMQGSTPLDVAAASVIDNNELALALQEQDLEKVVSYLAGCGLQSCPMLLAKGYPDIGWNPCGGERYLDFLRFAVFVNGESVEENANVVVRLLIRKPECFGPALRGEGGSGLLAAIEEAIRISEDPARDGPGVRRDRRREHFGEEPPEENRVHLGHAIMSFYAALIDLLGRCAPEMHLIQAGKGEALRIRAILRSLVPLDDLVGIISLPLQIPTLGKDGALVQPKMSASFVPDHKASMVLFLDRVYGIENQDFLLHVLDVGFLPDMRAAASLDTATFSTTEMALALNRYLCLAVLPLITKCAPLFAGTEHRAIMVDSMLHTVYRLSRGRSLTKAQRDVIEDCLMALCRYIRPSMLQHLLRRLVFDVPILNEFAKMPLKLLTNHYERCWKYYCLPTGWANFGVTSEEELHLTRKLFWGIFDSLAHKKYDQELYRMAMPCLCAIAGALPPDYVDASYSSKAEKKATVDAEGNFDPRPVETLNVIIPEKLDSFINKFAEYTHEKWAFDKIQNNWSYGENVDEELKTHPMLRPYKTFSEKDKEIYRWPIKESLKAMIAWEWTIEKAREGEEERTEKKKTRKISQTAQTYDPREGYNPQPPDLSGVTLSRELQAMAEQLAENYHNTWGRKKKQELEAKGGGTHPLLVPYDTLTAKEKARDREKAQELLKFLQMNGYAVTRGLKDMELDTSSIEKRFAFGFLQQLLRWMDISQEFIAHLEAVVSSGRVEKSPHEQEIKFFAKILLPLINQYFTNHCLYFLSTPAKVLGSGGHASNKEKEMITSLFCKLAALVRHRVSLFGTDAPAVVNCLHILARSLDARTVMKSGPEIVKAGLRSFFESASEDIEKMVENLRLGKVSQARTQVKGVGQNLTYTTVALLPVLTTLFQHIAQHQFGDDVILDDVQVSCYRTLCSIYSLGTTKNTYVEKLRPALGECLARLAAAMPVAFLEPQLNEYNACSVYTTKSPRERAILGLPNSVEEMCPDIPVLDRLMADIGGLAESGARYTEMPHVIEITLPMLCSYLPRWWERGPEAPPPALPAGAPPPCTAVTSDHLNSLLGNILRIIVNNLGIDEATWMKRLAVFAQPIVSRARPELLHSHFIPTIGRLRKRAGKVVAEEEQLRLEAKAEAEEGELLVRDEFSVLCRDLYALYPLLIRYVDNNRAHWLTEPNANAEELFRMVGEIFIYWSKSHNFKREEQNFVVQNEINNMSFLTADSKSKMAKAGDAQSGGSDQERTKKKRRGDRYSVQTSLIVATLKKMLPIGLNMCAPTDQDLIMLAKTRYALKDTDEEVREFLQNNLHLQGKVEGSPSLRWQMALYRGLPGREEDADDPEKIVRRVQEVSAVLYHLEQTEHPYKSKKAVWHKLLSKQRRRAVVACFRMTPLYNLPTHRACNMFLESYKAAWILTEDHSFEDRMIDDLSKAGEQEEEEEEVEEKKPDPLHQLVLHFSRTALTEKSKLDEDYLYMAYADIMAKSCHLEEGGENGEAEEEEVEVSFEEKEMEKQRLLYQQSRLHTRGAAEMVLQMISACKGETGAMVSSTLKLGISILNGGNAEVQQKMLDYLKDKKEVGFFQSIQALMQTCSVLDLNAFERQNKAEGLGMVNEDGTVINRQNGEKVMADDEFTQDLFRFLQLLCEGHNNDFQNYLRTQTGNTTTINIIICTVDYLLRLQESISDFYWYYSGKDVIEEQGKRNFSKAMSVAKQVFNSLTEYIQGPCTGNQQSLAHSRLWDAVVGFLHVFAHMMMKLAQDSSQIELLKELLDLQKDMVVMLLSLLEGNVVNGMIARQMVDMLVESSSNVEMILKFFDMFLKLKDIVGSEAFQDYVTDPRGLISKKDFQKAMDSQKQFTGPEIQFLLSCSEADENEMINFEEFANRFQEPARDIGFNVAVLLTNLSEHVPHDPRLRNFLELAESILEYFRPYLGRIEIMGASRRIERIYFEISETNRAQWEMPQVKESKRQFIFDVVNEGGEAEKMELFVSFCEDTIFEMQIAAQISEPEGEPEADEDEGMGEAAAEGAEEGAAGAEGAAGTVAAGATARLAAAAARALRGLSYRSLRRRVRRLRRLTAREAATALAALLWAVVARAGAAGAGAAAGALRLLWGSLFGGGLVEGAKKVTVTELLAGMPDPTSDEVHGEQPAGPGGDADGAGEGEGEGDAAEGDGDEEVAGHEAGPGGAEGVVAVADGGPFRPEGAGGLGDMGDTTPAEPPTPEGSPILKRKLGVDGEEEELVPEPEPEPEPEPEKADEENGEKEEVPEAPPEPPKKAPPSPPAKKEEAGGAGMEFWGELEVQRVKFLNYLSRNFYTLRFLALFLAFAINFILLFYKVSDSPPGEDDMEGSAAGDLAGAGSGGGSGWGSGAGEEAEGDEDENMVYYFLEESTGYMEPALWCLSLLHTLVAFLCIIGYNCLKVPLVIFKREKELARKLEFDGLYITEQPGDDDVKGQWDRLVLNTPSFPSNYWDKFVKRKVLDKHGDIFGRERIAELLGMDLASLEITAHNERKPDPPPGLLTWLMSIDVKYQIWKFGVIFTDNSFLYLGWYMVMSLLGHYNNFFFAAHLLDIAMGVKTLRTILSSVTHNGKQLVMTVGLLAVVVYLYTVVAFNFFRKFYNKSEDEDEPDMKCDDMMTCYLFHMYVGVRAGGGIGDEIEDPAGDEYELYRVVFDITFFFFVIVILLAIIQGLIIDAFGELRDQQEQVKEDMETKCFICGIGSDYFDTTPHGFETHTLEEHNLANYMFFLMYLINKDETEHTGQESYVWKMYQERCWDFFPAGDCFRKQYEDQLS

T1 sequence (P11716 whole entry): as above

## mouse cAMP PKA catalytic subunit (PKAc, α isoform) (Mus musculus)
[1]
  Km: 22.0 ± 3.40 µM
  Vmax: 20.2 ± 0.93 µmol/min/mg
  kcat: 11.2 ± 0.518 s⁻¹
  kcat/Km: 508000 M⁻¹ s⁻¹

## CC(C)C[C@@H]1NC(=O)[C@H](Cc2c[nH]cn2)NC(=O)[C@@H]2CCCN2C(=O)[C@H](CC(C)C)NC(=O)[C@@H](NC(=O)[C@H](CC(=O)O)NC(=O)CN)CSSC[C@@H]2NC(=O)[C@@H]3CSSC[C@@H](C(=O)N[C@@H](CCCNC(=N)N)C(=O)O)NC(=O)[C@H](CCCNC(=N)N)NC(=O)[C@H](CCCCN)NC(=O)[C@H](CCC(=O)O)NC(=O)[C@H](C)NC(=O)[C@H](CC(N)=O)NC(=O)[C@H]([C@@H](C)O)NC(=O)CNC(=O)[C@H](CCCNC(=N)N)NC(=O)[C@H](CCCNC(=N)N)NC(=O)[C@H](CCCCN)NC(=O)[C@H](CSSC[C@H](NC(=O)[C@H](CCCNC(=N)N)NC(=O)[C@H](CCCCN)NC1=O)C(=O)N[C@@H](CCCCN)C(=O)N[C@@H](C)C(=O)N[C@@H](CC(=O)O)C(=O)N[C@@H](CC(N)=O)C(=O)N[C@@H](CC(=O)O)C(=O)N3)NC(=O)[C@H](CCCCN)NC(=O)[C@H](CCCCN)NC(=O)CNC2=O [IpCa, Imperacalcin] (H-GDCLPHLKRCKADNDCCGKKCKRRGTNAEKRCR-OH; disulfide 3-17, 10-21, 16-32)
RyR1 [2]
  EC50: 6 ± 2 nM

## CC(C)C[C@@H]1NC(=O)[C@H](Cc2c[nH]cn2)NC(=O)[C@@H]2CCCN2C(=O)[C@H](CC(C)C)NC(=O)[C@@H](NC(=O)[C@H](CC(=O)O)NC(=O)CN)CSSC[C@@H]2NC(=O)[C@@H]3CSSC[C@@H](C(=O)N[C@@H](CCCNC(=N)N)C(=O)O)NC(=O)[C@H](CCCNC(=N)N)NC(=O)[C@H](CCCCN)NC(=O)[C@H](CCC(=O)O)NC(=O)[C@H](C)NC(=O)[C@H](CC(N)=O)NC(=O)[C@H]([C@@H](C)OP(=O)(O)O)NC(=O)CNC(=O)[C@H](CCCNC(=N)N)NC(=O)[C@H](CCCNC(=N)N)NC(=O)[C@H](CCCCN)NC(=O)[C@H](CSSC[C@H](NC(=O)[C@H](CCCNC(=N)N)NC(=O)[C@H](CCCCN)NC1=O)C(=O)N[C@@H](CCCCN)C(=O)N[C@@H](C)C(=O)N[C@@H](CC(=O)O)C(=O)N[C@@H](CC(N)=O)C(=O)N[C@@H](CC(=O)O)C(=O)N3)NC(=O)[C@H](CCCCN)NC(=O)[C@H](CCCCN)NC(=O)CNC2=O [IpCa-pT26] (H-GDCLPHLKRCKADNDCCGKKCKRRG[pT]NAEKRCR-OH; disulfide 3-17, 10-21, 16-32)
RyR1 [2]; skeletal muscle heavy SR vesicles, mean ± SEM for n = 3 separate experiments, read-out: Median effective concentration for stimulation of [3H]ryanodine binding
  EC50: 42 ± 10 nM

## LRRASLG [Kemptide]
[3]; room temperature
  Vmax: 8.34 ± 0.40 µmol/min/mg
  kcat: 4.62 ± 0.22 s⁻¹
[3]; substrate 0.5-512 µM, room temperature 30-60 min, luminescence
  Km: 10.3 ± 2.16 µM

## IpCa-T26E: IpCa variant containing a phosphomimetic (T26E) (GDCLPHLKRCKADNDCCGKKCKRRGENAEKRCR; disulfide (positions not given here); not fully specified; ends not checked; UniProt P59868 1-33, looked up, variant T26E)
RyR1 [2]; skeletal muscle heavy SR vesicles, no phosphatase inhibitors
  Effect on [3H]ryanodine binding: completely inert
Rabbit RyR1
  Cryo-EM density for the peptide bound to RyR1: failed to show any density for IpCa

## opicalcin2: calcin differing from opicalcin1 only by Ala26 instead of Thr26 (GDCLPHLKRCKENNDCCSKKCKRRGANPEKRCR; ends and bridges not checked; cysteine pairing not given here; UniProt P60253 34-66, looked up)
RyR1 [4]
  Apparent affinity / potency: can still bind with high potency
RyR1 [4]; opicalcin2 less potent, fig. S5, ref Xiao et al (2016)
  Difference in potency between opicalcin1 and opicalcin2: ~ 10 fold

## Imperacalcin (from UniProt P59868 1-33) (peptide)
[5]
  [3H] ryanodine binding to skeletal muscle heavy SR vesicles against IpCa-WT concentration; median effective concentration: 6 nM

## IpCa R23E: IpCa with the R23E mutation, from previous mutagenesis study (GDCLPHLKRCKADNDCCGKKCKERGTNAEKRCR; ends and bridges not checked; cysteine pairing not given here; UniProt P59868 1-33, looked up, variant R23E)
RyR1 [4]
  Effect of mutation on potency: drastically reduce potency
